Where two headings read alike, the source gives them in different places.
Key:
Type in all cases: biochemical
[1] = target: PI3K-alpha (Homo sapiens, UniProt P42336); assay: PI3K-alpha fluorescence polarization assay
[2] = target: PI3K-gamma (Homo sapiens, UniProt P48736); assay: PI3K-gamma fluorescence polarization assay; details: PI3Kγ Avg. IC50
Procedure, shortened: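 Each isoform (5 ng) phosphorylated 2.5 μM diC8-PI(4,5)P2 at 25 μM ATP for one hour at 25° C in the presence of inhibitor. Reactions were then stopped with EDTA, and product was detected by fluorescence polarization using a GST-GRP1 PH domain and a BODIPY-TMR-labelled IP4 tracer.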

[3] = target: T1, human TOR (Homo sapiens, UniProt P42345); assay: mTOR enzyme assay (DELFIA, His6-S6K substrate); details: read-out: mTOR Kinase Avg. IC50
T1 construct: FLAG

Sequence of PI3K-alpha (P42336 whole entry, species assumed): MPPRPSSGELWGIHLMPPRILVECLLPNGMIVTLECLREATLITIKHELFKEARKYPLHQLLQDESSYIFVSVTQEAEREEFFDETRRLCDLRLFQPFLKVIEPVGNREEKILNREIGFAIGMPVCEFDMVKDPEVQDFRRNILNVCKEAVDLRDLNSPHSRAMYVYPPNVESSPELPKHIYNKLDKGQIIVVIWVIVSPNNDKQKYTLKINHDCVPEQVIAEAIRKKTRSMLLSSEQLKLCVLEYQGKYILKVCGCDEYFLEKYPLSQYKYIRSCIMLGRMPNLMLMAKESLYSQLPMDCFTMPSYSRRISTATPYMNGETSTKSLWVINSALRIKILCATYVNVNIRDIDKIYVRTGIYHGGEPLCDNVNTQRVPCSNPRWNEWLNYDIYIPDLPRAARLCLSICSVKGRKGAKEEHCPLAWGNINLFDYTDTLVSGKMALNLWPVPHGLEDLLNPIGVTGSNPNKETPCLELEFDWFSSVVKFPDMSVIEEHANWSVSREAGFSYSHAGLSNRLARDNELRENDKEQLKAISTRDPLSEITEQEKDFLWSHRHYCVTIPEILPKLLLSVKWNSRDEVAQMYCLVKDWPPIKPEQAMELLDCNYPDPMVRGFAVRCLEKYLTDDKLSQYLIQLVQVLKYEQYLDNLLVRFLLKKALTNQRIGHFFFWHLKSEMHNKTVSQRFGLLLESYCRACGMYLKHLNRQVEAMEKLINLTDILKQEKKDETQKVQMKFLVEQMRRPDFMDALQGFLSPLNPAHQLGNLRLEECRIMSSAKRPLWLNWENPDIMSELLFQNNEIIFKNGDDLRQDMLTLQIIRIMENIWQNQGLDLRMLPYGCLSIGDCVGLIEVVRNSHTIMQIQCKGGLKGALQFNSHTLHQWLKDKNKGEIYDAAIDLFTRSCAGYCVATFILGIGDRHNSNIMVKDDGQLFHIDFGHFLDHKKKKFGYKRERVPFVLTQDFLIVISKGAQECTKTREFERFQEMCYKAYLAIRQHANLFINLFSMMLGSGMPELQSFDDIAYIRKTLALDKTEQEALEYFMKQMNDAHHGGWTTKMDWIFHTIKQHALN
Sequence of PI3K-alpha (P27986 whole entry partner, species assumed): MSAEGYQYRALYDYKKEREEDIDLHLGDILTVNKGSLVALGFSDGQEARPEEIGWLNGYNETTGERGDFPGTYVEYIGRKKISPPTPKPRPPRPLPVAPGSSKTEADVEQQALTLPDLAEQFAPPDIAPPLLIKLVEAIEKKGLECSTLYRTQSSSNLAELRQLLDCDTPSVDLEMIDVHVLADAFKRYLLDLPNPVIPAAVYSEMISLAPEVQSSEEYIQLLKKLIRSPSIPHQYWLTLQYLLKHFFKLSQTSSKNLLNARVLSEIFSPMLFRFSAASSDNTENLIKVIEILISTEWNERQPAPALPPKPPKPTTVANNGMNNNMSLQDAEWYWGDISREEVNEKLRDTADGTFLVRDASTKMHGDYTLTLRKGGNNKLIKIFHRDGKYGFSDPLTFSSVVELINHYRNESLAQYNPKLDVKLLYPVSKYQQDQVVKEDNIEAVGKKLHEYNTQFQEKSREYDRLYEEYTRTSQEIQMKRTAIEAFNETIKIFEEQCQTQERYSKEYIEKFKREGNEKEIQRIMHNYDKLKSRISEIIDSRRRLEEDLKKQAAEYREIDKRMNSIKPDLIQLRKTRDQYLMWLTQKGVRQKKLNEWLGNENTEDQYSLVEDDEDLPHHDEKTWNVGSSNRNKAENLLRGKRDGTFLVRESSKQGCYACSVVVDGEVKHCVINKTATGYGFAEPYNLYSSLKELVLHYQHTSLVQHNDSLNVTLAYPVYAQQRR
Sequence of PI3K-gamma (P48736 whole entry, species assumed, the tested form may be a part, canonical isoform): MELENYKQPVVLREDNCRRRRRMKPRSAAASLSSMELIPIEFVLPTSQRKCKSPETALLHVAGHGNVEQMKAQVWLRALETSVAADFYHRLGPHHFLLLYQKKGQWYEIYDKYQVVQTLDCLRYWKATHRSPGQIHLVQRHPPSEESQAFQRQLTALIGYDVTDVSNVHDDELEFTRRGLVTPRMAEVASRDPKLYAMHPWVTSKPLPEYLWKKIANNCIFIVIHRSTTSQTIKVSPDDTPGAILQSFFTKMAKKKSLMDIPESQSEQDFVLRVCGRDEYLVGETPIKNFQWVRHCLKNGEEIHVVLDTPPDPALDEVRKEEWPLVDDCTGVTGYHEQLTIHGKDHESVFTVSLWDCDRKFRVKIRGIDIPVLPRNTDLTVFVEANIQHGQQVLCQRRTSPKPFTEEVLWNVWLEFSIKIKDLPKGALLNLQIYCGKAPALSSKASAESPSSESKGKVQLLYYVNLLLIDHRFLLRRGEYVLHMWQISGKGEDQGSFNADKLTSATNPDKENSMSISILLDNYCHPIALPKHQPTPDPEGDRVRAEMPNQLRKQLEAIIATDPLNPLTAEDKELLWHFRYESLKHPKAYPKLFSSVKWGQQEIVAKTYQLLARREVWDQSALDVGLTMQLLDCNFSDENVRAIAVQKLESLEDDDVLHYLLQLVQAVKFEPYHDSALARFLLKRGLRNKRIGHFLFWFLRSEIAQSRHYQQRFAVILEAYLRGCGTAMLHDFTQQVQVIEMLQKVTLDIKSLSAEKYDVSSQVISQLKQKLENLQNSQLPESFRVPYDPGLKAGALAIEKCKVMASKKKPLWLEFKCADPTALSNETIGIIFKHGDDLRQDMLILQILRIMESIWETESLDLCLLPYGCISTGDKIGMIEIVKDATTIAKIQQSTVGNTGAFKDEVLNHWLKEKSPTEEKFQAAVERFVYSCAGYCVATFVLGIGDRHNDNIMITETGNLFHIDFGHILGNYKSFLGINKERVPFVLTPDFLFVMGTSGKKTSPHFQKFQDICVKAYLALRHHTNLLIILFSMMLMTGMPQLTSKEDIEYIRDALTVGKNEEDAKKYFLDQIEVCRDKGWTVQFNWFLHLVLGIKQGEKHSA

SMILES	IC50 ([1]; read-out: PI3Kα Avg. IC50) [nM]	IC50 [2] [nM]	IC50 [3] [nM]	IC50 ([1]; PI3Kα Avg. IC50) [nM]
Cc1[nH]c2ccc(Cl)cc2c1C=C1Oc2cc(O)cc(O)c2C1=O [Example 215, 2-[(5-chloro-2-methyl-1H-indol-3-yl)methylene]-4,6-dihydroxy-1-benzofuran-3(2H)-one]	264	2610	290	–
COc1ccc2c(c1)c(/C=C1\Oc3cc(O)cc(Cl)c3C1=O)c(C)n2CCCN(C)C [Example 466, (2Z)-4-Chloro-2-({1-[3-(dimethylamino)propyl]-5-methoxy-2-methyl-1H-indol-3-yl}methylene)-6-hydroxy-1-benzofuran-3(2H)-one]	73	1270	7500	–
Cn1cc(C=C2Oc3cc(O)cc(O)c3C2=O)c2cccc([N+](=O)[O-])c21 [Example 229, 4,6-dihydroxy-2-[(1-methyl-7-nitro-1H-indol-3-yl)methylene]-1-benzofuran-3(2H)-one]	735	> 10000	8300	–
CN(C)CCn1c(-c2ccccc2)c(C=C2Oc3cc(O)cc(O)c3C2=O)c2ccccc21 [Example 148, 2-({1-[2-(dimethylamino)ethyl]-2-phenyl-1H-indol-3-yl}methylene)-4,6-dihydroxy-1-benzofuran-3(2H)-one]	2680	4710	500	–
CCn1c(C)c(/C=C2\Oc3ccc(NC(=O)Nc4ccc(C(=O)N(C)CCCN(C)C)cc4)cc3C2=O)c2cc(OC)ccc21 [Compound 657, N-[3-(dimethylamino)propyl]-4-[({(2Z)-2-[(1-ethyl-5-methoxy-2-methyl-1H-indol-3-yl)methylene]-3-oxo-2,3-dihydro-1-benzofuran-5-yl}carbamoyl)amino]-N-methylbenzamide]	0.4	3.5	84	–
Cn1c(-c2cccnc2)c(C=C2Oc3cc(O)cc(O)c3C2=O)c2ccccc21 [Example 189, 4,6-dihydroxy-2-[(1-methyl-2-pyridin-3-yl-1H-indol-3-yl)methylene]-1-benzofuran-3(2H)-one]	2710	11000	140	–
Cc1ccc2[nH]cc(/C=C3\Oc4c(ccc(O)c4O)C3=O)c2c1 [Example 65, (2Z)-6,7-dihydroxy-2-[(5-methyl-1H-indol-3-yl)methylene]-1-benzofuran-3(2H)-one]	384	3770	> 20000	–
O=C1C(=Cc2c(-c3ccccc3)n(Cc3ccccc3)c3ccccc23)Oc2cc(O)cc(O)c21 [Example 149, 2-[(1-benzyl-2-phenyl-1H-indol-3-yl)methylene]-4,6-dihydroxy-1-benzofuran-3(2H)-one]	1590	2010	6150	–
CNC(=O)Nc1ccc2c(c1)C(=O)/C(=C/c1c(-c3c(C)nn(C)c3C)[nH]c3c(C)cc(OC)cc13)O2 [Compound 726, 1-[(2Z)-2-{[5-methoxy-7-methyl-2-(1,3,5-trimethyl-1H-pyrazol-4-yl)-1H-indol-3-yl]methylidene}-3-oxo-2,3-dihydro-1-benzofuran-5-yl]-3-methylurea]	1.37	13.7	18	–
CNC(=O)Nc1ccc2c(c1)C(=O)/C(=C/c1c(-c3c(C)nn(C)c3C)n(CCNCCO)c3ccc(OC)cc13)O2 [Compound 648, 1-[(2Z)-2-{[1-{2-[(2-hydroxyethyl)amino]ethyl}-5-methoxy-2-(1,3,5-trimethyl-1H-pyrazol-4-yl)-1H-indol-3-yl]methylene}-3-oxo-2,3-dihydro-1-benzofuran-5-yl]-3-methylurea]	2.95	37	9	–
COc1ccc2c(c1)c(/C=C1\Oc3cc(O)ccc3C1=O)c(-c1c(C)noc1C)n2CCN1CCN(C)CC1 [Example 469, (2Z)-2-({2-(3,5-Dimethylisoxazol-4-yl)-5-methoxy-1-[2-(4-methylpiperazin-1-yl)ethyl]-1H-indol-3-yl}methylene)-6-hydroxy-1-benzofuran-3(2H)-one]	23.5	942	165	–
CCn1c(C)c(/C=C2\Oc3ccc(NC(=O)Nc4ccc(CCCN(C)C)cc4)cc3C2=O)c2cc(OC)ccc21 [Compound 671, 1-{4-[3-(dimethylamino)propyl]phenyl}-3-{(2Z)-2-[(1-ethyl-5-methoxy-2-methyl-1H-indol-3-yl)methylidene]-3-oxo-2,3-dihydro-1-benzofuran-5-yl}urea]	4	25	220	–
COc1ccc2[nH]cc(/C=C3\Oc4c(ccc(O)c4O)C3=O)c2c1 [Example 62, (2Z)-6,7-dihydroxy-2-[(5-methoxy-1H-indol-3-yl)methylene]-1-benzofuran-3(2H)-one]	673	3770	16000	–
CCn1c(C)c(/C=C2\Oc3ccc(NC(=O)Nc4ccc(NC(=O)CCN(C)C)cc4)cc3C2=O)c2cc(OC)ccc21 [Compound 676, N-{4-[({(2Z)-2-[(1-ethyl-5-methoxy-2-methyl-1H-indol-3-yl)methylidene]-3-oxo-2,3-dihydro-1-benzofuran-5-yl}carbamoyl)amino]phenyl}-N3,N3-dimethyl-b-alaninamide]	0.3	3.25	7	–
COc1ccc2c(c1)c(/C=C1\Oc3c(ccc(O)c3C)C1=O)c(C)n2CCN1CCN(C)CC1 [Example 347, (2Z)-6-Hydroxy-2-({5-methoxy-2-methyl-1-[2-(4-methylpiperazin-1-yl)ethyl]-1H-indol-3-yl}methylene)-7-methyl-1-benzofuran-3(2H)-one]	408	8670	> 4000	–
Cn1cc(/C=C2\Oc3cc(O)cc(O)c3C2=O)c2c(-c3ccc(N)cc3)cccc21 [Example 370, (2Z)-2-{[4-(4-Aminophenyl)-1-methyl-1H-indol-3-yl]methylene}-4,6-dihydroxy-1-benzofuran-3(2H)-one]	1070	3000	14	–
COc1ccc2[nH]c(-c3c(C)nn(C)c3C)c(/C=C3\Oc4ccc(NC(=O)Nc5ccc(NC(=O)CCN(C)C)cc5)cc4C3=O)c2c1 [Compound 691, N-[4-({[(2Z)-2-{[5-methoxy-2-(1,3,5-trimethyl-1H-pyrazol-4-yl)-1H-indol-3-yl]methylidene}-3-oxo-2,3-dihydro-1-benzofuran-5-yl]carbamoyl}amino)phenyl]-N3,N3-dimethyl-b-alaninamide]	0.25	2.1	1	–
COc1cc(O)cc2c1C(=O)/C(=C/c1c(-c3ccccc3)n(C)c3ccccc13)O2 [Example 432, (2Z)-6-Hydroxy-4-methoxy-2-[(1-methyl-2-phenyl-1H-indol-3-yl)methylene]benzofuran-3(2H)-one]	> 10000	8140	2030	–
CCc1cccc2c(C=C3Oc4cc(O)cc(O)c4C3=O)cn(CCCC#N)c12 [Example 232, 4-{3-[(4,6-dihydroxy-3-oxo-1-benzofuran-2(3H)-ylidene)methyl]-7-ethyl-1H-indol-1-yl}butanenitrile]	610	6000	> 20000	–
O=C1/C(=C/c2c[nH]c3ccc(Cl)cc23)Oc2cc(O)cc(O)c21 [Example 60, (2Z)-2-[(5-chloro-1H-indol-3-yl)methylene]-4,6-dihydroxy-1-benzofuran-3(2H)-one]	–	3630	11000	492
O=C1C(=Cc2c(-c3ccccc3)n(CC3CC3)c3ccccc23)Oc2cc(O)cc(O)c21 [Example 152, 2-{[1-(cyclopropylmethyl)-2-phenyl-1H-indol-3-yl]methylene}-4,6-dihydroxy-1-benzofuran-3(2H)-one]	4180	4470	1450	–
CNC(=O)Nc1ccc2c(c1)C(=O)/C(=C/c1c(-c3c(C)nn(C)c3C)n(CCN(C)CCN(C)C)c3ccc(OC)cc13)O2 [Compound 665, 1-[(2Z)-2-{[1-(2-{[2-(dimethylamino)ethyl](methyl)amino}ethyl)-5-methoxy-2-(1,3,5-trimethyl-1H-pyrazol-4-yl)-1H-indol-3-yl]methylidene}-3-oxo-2,3-dihydro-1-benzofuran-5-yl]-3-methylurea]	5.5	127	39	–
O=C1C(=Cc2c[nH]c3cccc(Cl)c23)Oc2cc(O)cc(O)c21 [Example 171, 2-[(4-chloro-1H-indol-3-yl)methylene]-4,6-dihydroxy-1-benzofuran-3(2H)-one]	2030	> 10000	> 20000	–
COCCn1c(-c2ccccc2)c(C=C2Oc3cc(O)cc(O)c3C2=O)c2ccccc21 [Example 151, 4,6-dihydroxy-2-{[1-(2-methoxyethyl)-2-phenyl-1H-indol-3-yl]methylene}-1-benzofuran-3(2H)-one]	2110	4220	710	–
COc1ccc2c(c1)c(/C=C1\Oc3cc(O)ccc3C1=O)c(C)n2CCN1CCCCC1 [Example 454, (2Z)-6-Hydroxy-2-{[5-methoxy-2-methyl-1-(2-piperidin-1-ylethyl)-1H-indol-3-yl]methylene}-1-benzofuran-3(2H)-one]	32	517	1300	–
CNC(=O)Nc1ccc2c(c1)C(=O)/C(=C/c1c(-c3c(C)noc3C)n(CCN3CCN(C)CC3)c3ccc(OC)cc13)O2 [Compound 623, 1-[(2Z)-2-({2-(3,5-dimethylisoxazol-4-yl)-5-methoxy-1-[2-(4-methylpiperazin-1-yl)ethyl]-1H-indol-3-yl}methylidene)-3-oxo-2,3-dihydro-1-benzofuran-5-yl]-3-methylurea]	8.5	296	60	–

— patent US20090311217A1, “3-SUBSTITUTED-1H-INDOLE COMPOUNDS, THEIR USE AS MTOR KINASE AND PI3 KINASE INHIBITORS, AND THEIR SYNTHESES” (priority 2008, published 2009)
